Tested on: MC3T3-E1 cells
Assay: Alkaline phosphatase activity (maturation) of MC3T3-E1 preosteoblastic cells
Type: cell-based
Conditions: increasing amounts of solvent (triacetin 0 to 6 mM); determined after 6 days; FIG. 2
Experimental: To compare the effect of various plasticizer regarding their osteogenetic effect to that of triacetin, MC3T3-E1 cells were grown in an alpha-modified Minimum Essential Medium (Life Technologies, Inc., Grand Island, N.Y.) containing 10% fetal calf serum (Life Technologies, Inc.), 50 μg/ml gentamycin, and 50 μg/ml ascorbic acid. To examine the action of triacetin on this cell line, 1×10^5 cells per well were plated in 6-well plates and triacetin subsequently added. Medium exchange was performed after 3 days and alkaline phosphatase (ALP) was determined according to Lowry, O. et al. [J. Biol. Chem. 207 (1954) 19-37]: p-nitrophenol liberated was converted to p-nitrophenylate by adding 400 μl of 1 M NaOH, which was quantitated by measuring the absorbance at 410 nm (epsilon=17500/mol×cm). Alkaline phosphatase activity was normalized to total protein and expressed as nmol nitrophenylate generated per min per mg protein.
MC3T3-E1 cells were treated with increasing amounts of different solvents and the effect on the maturation of MC3T3-E1 cells determined after 6 days by alkaline phosphatase activity.

Compound	Maturation of MC3T3-E1 cells determined by alkaline phosphatase activity
CN(C)C=O [N,N-dimethylformamide]	no positive effect
C[S+](C)[O-] [dimethylsulfoxide]	no positive effect
CCO [ethanol]	no positive effect
CO [methanol]	no positive effect
CC(=O)OCC(COC(C)=O)OC(C)=O [triacetin, 1,2,3-Triacetoxypropane]	increases in a concentration dependent manner
